Here are results for 25 molecules from patent US10508085B2, “Compounds and methods for IDO and TDO modulation, and indications therefor” (Plexxikon Inc., priority 2016, dated 2019).

The target in assay [1] is T1, human TDO (TDO-expressing HEK293 cells) (Homo sapiens, UniProt P48775).
T1 construct: expressed in transfected cells
Nature of the assay: Cell based kynurenine assay, TDO-expressing HEK293 cell clones. Conditions: TDO-expressing HEK293 cells, 24 hours incubation; geometric mean; read-out: HEK293 TDO Kynurenine GMean IC50 (μM) (Cellular Assay). A digest of the protocol:
(§1)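 HEK293 clones stably expressing human IDO1 or human TDO (CMV promoter), 2.5×10^4 cells/well, given serial compound dilutions for 24 h. Kynurenine measured in supernatant; inhibition relative to cell/0.2% DMSO and media-only controls. IC50 by nonlinear regression.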

For assay [2], the target named is T2, Human Tryptophan 2,3-dioxygenase (TDO) (Homo sapiens, UniProt P48775).
T2 construct: His tag (N); made in house; host or cells: E. coli
Nature of the assay: Human TDO enzymatic assay (kynurenine level). The format is biochemical. Conditions: 1 nM TDO, 350 μM L-Trp; geometric mean; read-out: TDO GMean: IC50 (μM) (Biochemical Assay). A digest of the protocol: (§2)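 N-His human IDO (6 nM, 10 μM L-Trp, 5 μM methylene blue, 20 min) or TDO (1 nM, 350 μM L-Trp, 0.4 μM methylene blue, 70 min) run at room temp in pH 6.5 phosphate with ascorbate, catalase, Tween 20. TCA stop, 30 min 50 °C converts N-formylkynurenine to kynurenine; IC50 by nonlinear regression.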

Assay [3] addresses T3, Human Indoleamine 2,3-dioxygenase (IDO) (Homo sapiens, UniProt P14902).
T3 construct: His tag (N); made in house; host or cells: E. coli
Put plainly: Human IDO enzymatic assay (kynurenine level). The format is biochemical. Conditions: 6 nM IDO, 10 μM L-Trp; geometric mean; read-out: IDO1 GMean: IC50 (μM) (Biochemical Assay). A digest of the protocol:
as §2

The target in assay [4] is T4, human IDO (IDO1-expressing HEK293 cells) (Homo sapiens, UniProt P14902).
T4 construct: expressed in transfected cells
Nature of the assay: Cell based kynurenine assay, IDO1-expressing HEK293 cell clones. As to conditions: IDO1-expressing HEK293 cells, 24 hours incubation; geometric mean; read-out: HEK293 IDO1 Kynurenine GMean IC50 (μM) (Cellular Assay). A digest of the protocol: as §1

T4 sequence (P14902 whole entry): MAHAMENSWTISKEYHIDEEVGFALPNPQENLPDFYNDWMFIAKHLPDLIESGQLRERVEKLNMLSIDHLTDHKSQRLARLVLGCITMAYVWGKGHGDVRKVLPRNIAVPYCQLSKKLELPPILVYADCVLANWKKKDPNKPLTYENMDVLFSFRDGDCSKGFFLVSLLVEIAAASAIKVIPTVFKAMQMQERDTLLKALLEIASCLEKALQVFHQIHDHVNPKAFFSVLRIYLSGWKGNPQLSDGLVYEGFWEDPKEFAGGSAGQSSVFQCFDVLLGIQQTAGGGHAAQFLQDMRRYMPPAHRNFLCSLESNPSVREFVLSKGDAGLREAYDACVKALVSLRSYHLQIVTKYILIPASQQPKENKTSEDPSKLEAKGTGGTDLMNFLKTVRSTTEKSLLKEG
T3 sequence (P14902 whole entry): as above
T2 sequence (P48775 whole entry): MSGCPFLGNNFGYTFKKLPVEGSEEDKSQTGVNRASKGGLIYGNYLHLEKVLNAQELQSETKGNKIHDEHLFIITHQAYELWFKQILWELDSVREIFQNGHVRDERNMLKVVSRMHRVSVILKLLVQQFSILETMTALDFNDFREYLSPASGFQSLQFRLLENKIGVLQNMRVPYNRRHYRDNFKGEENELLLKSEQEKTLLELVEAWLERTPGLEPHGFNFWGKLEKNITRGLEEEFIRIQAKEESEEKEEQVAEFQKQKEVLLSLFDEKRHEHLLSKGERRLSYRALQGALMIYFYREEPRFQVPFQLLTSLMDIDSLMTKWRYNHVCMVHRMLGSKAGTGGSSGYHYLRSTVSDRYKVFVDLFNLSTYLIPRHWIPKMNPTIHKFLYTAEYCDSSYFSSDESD
T1 sequence (P48775 whole entry): as above

The IC50 is the concentration that gives 50% inhibition. With `OC(c1c(F)c(Cl)c(F)c2cn[nH]c12)C1(C2CCCCC2)CC1` (stereo not shown) [Compound P-0247, (5-chloro-4,6-difluoro-1H-indazol-7-yl)(1-cyclohexylcyclopropyl)methanol], the IC50 in assay [1], in assay [2], in assay [3] and in assay [4] was 0.0001 to 10 µM in each case.

`CC(C)(C)C(O)c1c(F)c(Cl)c(F)c2cn[nH]c12` (stereo not shown) [Compound P-0248, 1-(5-chloro-4,6-difluoro-1H-indazol-7-yl)-2,2-dimethylpropan-1-ol]: the IC50 in assay [1] is over 10 µM; in assay [2] it was 0.0001 to 10 µM; in assay [3], 0.0001 to 10 µM; in assay [4], 0.0001 to 10 µM.

Turning to `OC1(c2c(F)c(Cl)c(F)c3cn[nH]c23)CC2(C1)C1CCCC2CCC1` (stereo not shown) [Compound P-0249, (1s,5s)-3′-(5-chloro-4,6-difluoro-1H-indazol-7-yl)spiro[bicyclo[3.3.1]nonane-9,1′-cyclobutan]-3′-ol], the IC50 in assay [1] was over 10 µM; in assay [2], 0.0001 to 10 µM; in assay [3] it was 0.0001 to 10 µM; in assay [4] it was 0.0001 to 10 µM.

Take `CC(C)(C(O)c1cc(Cl)cc2cn[nH]c12)C(F)(F)F` (stereo not shown) [Compound P-0250, 1-(5-chloro-1H-indazol-7-yl)-3,3,3-trifluoro-2,2-dimethylpropan-1-ol]: the IC50 in assay [1], in assay [2], in assay [3] and in assay [4] was 0.0001 to 10 µM each time.

In the case of `CC(C)(C1CCC1)C(O)c1c(F)c(Cl)c(F)c2cn[nH]c12` (stereo not shown) [Compound P-0251, 1-(5-chloro-4,6-difluoro-1H-indazol-7-yl)-2-cyclobutyl-2-methylpropan-1-ol], the IC50 in assay [1], in assay [2], in assay [3] and in assay [4] was 0.0001 to 10 µM each time.

With `CC(C)(C1CCCC1)C(O)c1c(F)c(Cl)c(F)c2cn[nH]c12` (stereo not shown) [Compound P-0252, 1-(5-chloro-4,6-difluoro-1H-indazol-7-yl)-2-cyclopentyl-2-methylpropan-1-ol], the IC50 is over 10 µM in assay [1], 0.0001 to 10 µM in assay [2], 0.0001 to 10 µM in assay [3] and 0.0001 to 10 µM in assay [4].

For `CC(C)(C1CCCCC1)C(O)c1c(F)c(Cl)c(F)c2cn[nH]c12` (stereo not shown) [Compound P-0253, 1-(5-chloro-4,6-difluoro-1H-indazol-7-yl)-2-cyclohexyl-2-methylpropan-1-ol], the half-inhibitory concentration (IC50) in assay [1], in assay [2], in assay [3] and in assay [4] was 0.0001 to 10 µM in each case.

`CC(C)(CC1CCOCC1)C(O)c1cc(Cl)cc2cn[nH]c12` (stereo not shown) [Compound P-0254, 1-(5-chloro-1H-indazol-7-yl)-2,2-dimethyl-3-(tetrahydro-2H-pyran-4-yl)propan-1-ol]: the IC50 in assay [1], in assay [2], in assay [3] and in assay [4] was 0.0001 to 10 µM each time.

Turning to `CCC(C)(CC)C(O)c1cc(Cl)cc2cn[nH]c12` (stereo not shown) [Compound P-0255, 1-(5-chloro-1H-indazol-7-yl)-2-ethyl-2-methylbutan-1-ol], the IC50 in assay [1], in assay [2], in assay [3] and in assay [4] was 0.0001 to 10 µM in each case.

Turning to `CCC(CC)(CCC#N)C(O)c1cc(Cl)cc2cn[nH]c12` (stereo not shown) [Compound P-0256, 4-((5-chloro-1H-indazol-7-yl)(hydroxy)methyl)-4-ethylhexanenitrile], the IC50 in assay [1], in assay [2], in assay [3] and in assay [4] was 0.0001 to 10 µM in each case.

Regarding `OC(c1c(F)c(Cl)cc2cn[nH]c12)C12CC3CC(CC(C3)C1)C2` [Compound P-0257, ((1S,3s)-adamantan-1-yl)(5-chloro-6-fluoro-1H-indazol-7-yl)methanol], the IC50 in assay [1], in assay [2], in assay [3] and in assay [4] was 0.0001 to 10 µM each time.

Regarding `OC(c1c(F)c(Cl)cc2cn[nH]c12)C1CC2CCC1C2` (stereo not shown) [Compound P-0258, bicyclo[2.2.1]heptan-2-yl(5-chloro-6-fluoro-1H-indazol-7-yl)methanol], the 50% inhibitory concentration (IC50) in assay [1], in assay [2], in assay [3] and in assay [4] was 0.0001 to 10 µM each time.

As for `CC(C1CC1)(C1CC1)C(O)c1cc(Cl)cc2cn[nH]c12` (stereo not shown) [Compound P-0259, 1-(5-chloro-1H-indazol-7-yl)-2,2-dicyclopropylpropan-1-ol], the IC50 in assay [1], in assay [2], in assay [3] and in assay [4] was 0.0001 to 10 µM throughout.

In the case of `CC(C1CC1)(C1CC1)C(O)c1c(F)c(Cl)cc2cn[nH]c12` (stereo not shown) [Compound P-0260, 1-(5-chloro-6-fluoro-1H-indazol-7-yl)-2,2-dicyclopropylpropan-1-ol], the IC50 in assay [1], in assay [2], in assay [3] and in assay [4] was 0.0001 to 10 µM in each case.

As for `CC(C)(C1CCN(S(C)(=O)=O)CC1)C(O)c1c(F)c(Cl)cc2cn[nH]c12` (stereo not shown) [Compound P-0261, 1-(5-chloro-6-fluoro-1H-indazol-7-yl)-2-methyl-2-(1-(methylsulfonyl)piperidin-4-yl)propan-1-ol], the IC50 in assay [1], in assay [2], in assay [3] and in assay [4] was 0.0001 to 10 µM each time.

As for `OC(c1c(F)c(Cl)cc2cn[nH]c12)C(F)(F)C1CCOCC1` (stereo not shown) [Compound P-0262, 1-(5-chloro-6-fluoro-1H-indazol-7-yl)-2,2-difluoro-2-(tetrahydro-2H-pyran-4-yl)ethan-1-ol], the IC50 in assay [1], in assay [2], in assay [3] and in assay [4] was 0.0001 to 10 µM each time.

As for `CC1(C(O)c2cc(Br)cc3cn[nH]c23)CCCCC1` (stereo not shown) [Compound P-0263, (5-bromo-1H-indazol-7-yl)(1-methylcyclohexyl)methanol], the concentration for half-maximal inhibition (IC50) in assay [1], in assay [2], in assay [3] and in assay [4] was 0.0001 to 10 µM in each case.

For the molecule `CC1(C(O)c2c(F)c(Cl)c(F)c3cn[nH]c23)CCC1` (stereo not shown) [Compound P-0264, (5-chloro-4,6-difluoro-1H-indazol-7-yl)(1-methylcyclobutyl)methanol], the IC50 is over 10 µM in assay [1], 0.0001 to 10 µM in assay [2], 0.0001 to 10 µM in assay [3] and 0.0001 to 10 µM in assay [4].

For the molecule `OC(c1c(F)c(Cl)c(F)c2cn[nH]c12)C1(C(F)(F)F)CCC1` (stereo not shown) [Compound P-0265, (5-chloro-4,6-difluoro-1H-indazol-7-yl)(1-(trifluoromethyl)cyclobutyl)methanol], the IC50 in assay [1], in assay [2], in assay [3] and in assay [4] was 0.0001 to 10 µM in each case.

On to `O=S(=O)(c1ccccc1)C1(C(O)c2cc(Cl)cc3cn[nH]c23)CC1` (stereo not shown) [Compound P-0266, (5-chloro-1H-indazol-7-yl)(1-(phenylsulfonyl)cyclopropyl)methanol], for which the IC50 was over 10 µM in assay [1], 0.0001 to 10 µM in assay [2], 0.0001 to 10 µM in assay [3] and over 10 µM in assay [4].

Consider `CCC(CC)(CC)C(O)c1cc(Cl)cc2cn[nH]c12` (stereo not shown) [Compound P-0267, 1-(5-chloro-1H-indazol-7-yl)-2,2-diethylbutan-1-ol], for which the IC50 in assay [1], in assay [2], in assay [3] and in assay [4] was 0.0001 to 10 µM in each case.

Regarding `CCC(CC)C(O)c1cc(Cl)cc2cn[nH]c12` (stereo not shown) [Compound P-0268, 1-(5-chloro-1H-indazol-7-yl)-2-ethylbutan-1-ol], the IC50 in assay [1], in assay [2], in assay [3] and in assay [4] was 0.0001 to 10 µM each time.

Regarding `OC(c1cc(Cl)cc2cn[nH]c12)C12CCC(C(F)F)(CC1)CC2` (stereo not shown) [Compound P-0269, (5-chloro-1H-indazol-7-yl)(4-(difluoromethyl)bicyclo[2.2.2]octan-1-yl)methanol], the IC50 in assay [1], in assay [2], in assay [3] and in assay [4] was 0.0001 to 10 µM throughout.

`CS(=O)(=O)N1CCC(C(F)(F)C(O)c2cc(Cl)cc3cn[nH]c23)CC1` (stereo not shown) [Compound P-0270, 1-(5-chloro-1H-indazol-7-yl)-2,2-difluoro-2-(1-(methylsulfonyl)piperidin-4-yl)ethan-1-ol]: the IC50 in assay [1], in assay [2], in assay [3] and in assay [4] was 0.0001 to 10 µM in each case.

`CC(C)(C(O)c1cc(Cl)cc2cn[nH]c12)[C@H]1C[C@H]2CC[C@@H](C1)N2S(C)(=O)=O` (stereo partly drawn) [Compound P-0271, 1-(5-chloro-1H-indazol-7-yl)-2-methyl-2-((1R,3r,5S)-8-(methylsulfonyl)-8-azabicyclo[3.2.1]octan-3-yl)propan-1-ol]: the IC50 in assay [1], in assay [2], in assay [3] and in assay [4] was 0.0001 to 10 µM throughout.
